Patent US9782424B2, “Synergistic combination comprising avermectins and a NSAID for tumor inhibition” (Ectin Research AB, priority 2011, dated 2017)

What was measured:
Assay type in all cases: cell-based, human
[1] = tested on: colorectal cell line (HT29); experiment: XTT-assay proliferation rate, colorectal cell line HT29
Description: Commercially available human tumor cell lines were purchased from ATCC (ATCC/LGC-standards, Borás, Sweden). Cell lines from urinary bladder (UM-UC-3, #CRL-1749), colorectal carcinoma (Colo205, #CCL-222 and HT29, #HTB-38), prostate carcinoma (LNCaP, #CRL-1740) and breast carcinoma (ZR-75-1, #CRL-1500) were purchased and stored in liquid nitrogen. Cells were cultured in Roswell Park Memorial Institute media (RPMI-1640) or minimum essential medium with Earl's salts (EMEM) supplemented with 10% Foetal calf serum (FCS, Sigma) and cultured using a 37° C. cell culture incubator (Forma Scientific, NinoLab, Kungsbacka, Sweden) with 5% CO2 humidified atmosphere. Tumor cell lines were handled aseptically using a laminar airflow (LAF) bench (Holten 2448, Ninolab, Sweden) and stored in a liquid nitrogen tank and were initiated in culture as previously described (Falk P. Experimental models of the peritoneal environment: Effects of TGF-beta and Hyaluronan. Göteborg: University of Gothenburg; 2008). Briefly, ampoules of frozen cells were thawed by submerging into a 37° C. water bath for 45 s. Cells were resuspended in 10 ml of preheated RPMI-1640 with 10% FCS and centrifuged in 260 g for 10 min. With supernatant discarded, cell pellets were further resuspended with 5 ml complete medium into 25 cm^2 cell culture flasks (Cell+, Sarstedt, Nümbrecht, Germany). Tumor cells were cultured until sub-confluence and further sub-cultured with Trypsin (0.5%), EDTA (0.2%) solution (T4174, TE-10x, Sigma) in sterile sodium chloride. Culture media was changed two-three times a week. Culture flasks (Cell+, Sarstedt, Nümbrecht, Germany) and culture plates (Falcon/BD, Franklin Lakes, N.J., USA) were used for experimental set-ups. Cells were regularly monitored using an inverted microscope connected to a digital photo equipment (Axiovert 25 and Axiovision, Zeiss, Carl Zeiss AG, Germany) (FIG. 1). Described culture techniques and equipment have been used extensively in the laboratory
The proliferation rates of the different human tumor cell lines were studied using a method based on the conversion of a sodium salt (XTT-assay, Sigma) into a stable orange color that could be analyzed in a spectrophotometer. The color change is proportional to the mitochondrial dehydrogenase activity resulting in an effective technique for measuring cell toxicity (Roehm N W, Rodgers G H, Hatfield S M, Glasebrook A L. An improved colorimetric assay for cell proliferation and viability utilizing the tetrazolium salt XTT. J Immunol Methods 1991;142(2):257-65) or cell proliferation. The color change was measured using a 96-well plate reader with software to calculate the absorbance at 450 nm (V-max/Softmax Pro, Molecular Devices, USA). Cells were cultured until approx 50% confluence and then pre-incubated for 24 h with RPMI-1640 or EMEM containing 1% FCS only. RPMI 1640 and EMEM without phenol red was used during the experiments to reduce the red color background signal in the XTT-assay.
(§1) Prior to the experimental start all cells were gently washed once with RPMI 1640 and EMEM with 1% FCS. Increasing concentrations of substance ivermectin was added with an 8-channel pipette (Titertek, Kem-En-Tec, Taastrup, Denmark) together with sterile pipette tips (Molecular Bioproducts, San Diego, Calif., USA). Cell cultures including active substances were incubated for 24 hours (and 96 hours). Untreated wells including culture medium only served as untreated controls. The XTT-assay substrate was added and after gentle agitation using a micro plate shaker, absorbencies at 450 and 650 nm were measured. Levels from medium were subtracted and compared with control wells, using culture medium only.

[2] = tested on: prostate cells (LNCaP); experiment: Morphology of cultured tumor cells, LNCaP; settings: for Effect on morphology: 24 hours (FIG. 8)
Description: (§2) Commercially available human tumor cell lines were purchased from ATCC (ATCC/LGC-standards, Borás, Sweden). […] Briefly, ampoules of frozen cells were thawed by submerging into a 37° C. water bath for 45 s. […] With supernatant discarded, cell pellets were further resuspended with 5 ml complete medium into 25 cm^2 cell culture flasks (Cell+, Sarstedt, Nümbrecht, Germany). Tumor cells were cultured until sub-confluence and further sub-cultured with Trypsin (0.5%), EDTA (0.2%) solution (T4174, TE-10x, Sigma) in sterile sodium chloride. Culture media was changed two-three times a week. Culture flasks (Cell+, Sarstedt, Nümbrecht, Germany) and culture plates (Falcon/BD, Franklin Lakes, N.J., USA) were used for experimental set-ups. Cells were regularly monitored using an inverted microscope connected to a digital photo equipment (Axiovert 25 and Axiovision, Zeiss, Carl Zeiss AG, Germany) (FIG. 1). Described culture techniques and equipment have been used extensively in the laboratory
(§3) The effect of Ivermectin, selamectin, abamectin alone, or in combination with ketoconazole, albendazole, ibuprofen, diclofenac and celecoxib on the morphology of cultured human tumor cells was studied. The effect of ivermectin in the presence of increasing concentration of ivermectin was also investigated. Cells were grown into sub-confluence and then sub-cultured into 12 and 24 well plates (Sarstedt, Falcon/BD) for morphology studies, or in 96 well plates (Sarstedt, Falcon/BD) for proliferation studies.

[3] = tested on: colorectal cells (Colo205); experiment: Morphology of cultured tumor cells, Colo205
Description: as §2, §3

[4] = tested on: prostatic cell line (LNCaP); experiment: XTT-assay proliferation rate, prostatic cell line; settings: for Proliferation rate compared to untreated control: LNCaP (Table 5)
Description: as §2
The proliferation rates of the different human tumor cell lines were studied using a method based on the conversion of a sodium salt (XTT-assay, Sigma) into a stable orange color that could be analyzed in a spectrophotometer. […] The color change was measured using a 96-well plate reader with software to calculate the absorbance at 450 nm (V-max/Softmax Pro, Molecular Devices, USA).
as §1, with “Increasing” for “Prior to the experimental start all cells were gently washed once with RPMI 1640 and EMEM with 1% FCS. Increasing”

[5] = ivermectin 10e-4 to 10e-10 mol/L (FIG. 2)

Substance: 22,23-dihydroavermectin B1a+22,23-dihydroavermectin B1b [ivermectin]
- Proliferation rate in per cent compared to untreated medium control ([1]; ivermectin 10e-9 mol/L): 109 ± 14%
- Proliferation rate in per cent compared to untreated medium control ([1]; ivermectin 10e-8 mol/L): 112 ± 12%
- Proliferation rate in per cent compared to untreated medium control ([1]; ivermectin 10e-7 mol/L): 106 ± 9%
- Proliferation rate in per cent compared to untreated medium control ([1]; ivermectin 10e-6 mol/L): 91 ± 5%
- Effect on proliferation rate ([1]; ivermectin 100 μM): decreased proliferation rate
- Proliferation rate in per cent compared to untreated medium control ([1]; ivermectin 10e-5 mol/L): 85±11%
- Proliferation rate in per cent compared to untreated medium control ([1]; ivermectin 10e-4 mol/L): 5±1%
- Effect on morphology ([2]; ivermectin 100 μM): affected
- Morphological effects over the concentration series [2, 5]: affected by the highest concentration 10e-4 mol/L only
- Effect on morphology ([2]; ivermectin 1 and 10 μM): No effect
- Effect on morphology ([3]; ivermectin): affected cell structure
- Effect on morphology ([3]; ivermectin 10 μM): no effect
- Decreased growth of cells, substances tested alone ([3]; ivermectin 10 μM alone, albendazole 20 and 40 μM alone (FIG. 11)): not seen
- Morphological effects over the concentration series [3, 5]: affected even at 10e-6 mol/L
- Proliferation rate compared to untreated control ([4]; IVM 1 μmol/L alone): 95.4 ± 0.6%
- Proliferation rate compared to untreated control ([4]; IVM 10 μmol/L alone): 106.4±2.2%
- Proliferation rate compared to untreated control ([4]; IVM 10 μmol/L alone, listed as IVM): 106.4 ± 2.2%
- Proliferation rate compared to untreated control ([4]; IVM 100 μmol/L alone): 45.7 ± 2.2%
- Proliferation rate in per cent compared to untreated medium control ([4]; LNCaP, ivermectin 10e-9 mol/L): 91 ± 4%
- Proliferation rate in per cent compared to untreated medium control ([4]; LNCaP, ivermectin 10e-8 mol/L): 93 ± 5%
- Proliferation rate in per cent compared to untreated medium control ([4]; LNCaP, ivermectin 10e-7 mol/L): 94 ± 5%
- Proliferation rate in per cent compared to untreated medium control ([4]; LNCaP, ivermectin 10e-6 mol/L): 99 ± 4%
- Effect on proliferation rate compared to untreated control ([4]; LNCaP, ivermectin 100 μM alone or in combination): reduced the proliferation rate
- Proliferation rate in per cent compared to untreated medium control ([4]; LNCaP, ivermectin 10e-4 mol/L): 8±1%
